Measurements published in ChEMBL document CHEMBL1155312, “In vivo evaluation of diaminodiphenyls: anticonvulsant agents with minimal acute neurotoxicity” (Bioorg Med Chem Lett, 2009).

Assays:
Rattus norvegicus [1] = test: Anticonvulsant activity in Sprague-Dawley rat assessed as inhibition of maximal electric shock-induced seizure at 30 mg/kg, po after 1 hrs; assay type: functional
Mus musculus [2] = test: Anticonvulsant activity in CF1 albino mouse assessed as inhibition of maximal electric shock-induced seizure at 300 mg/kg, ip after 4 hrs; assay type: functional; settings: route intraperitoneal
Mus musculus [3] = test: Anticonvulsant activity in CF1 albino mouse assessed as inhibition of maximal electric shock-induced seizure at 100 mg/kg, ip after 4 hrs; assay type: functional; settings: route intraperitoneal
Rattus norvegicus [4] = test: Anticonvulsant activity in Sprague-Dawley rat assessed as inhibition of maximal electric shock-induced seizure at 30 mg/kg, po after 0.25 hrs; assay type: functional
Mus musculus [5] = test: Anticonvulsant activity in CF1 albino mouse assessed as inhibition of maximal electric shock-induced seizure at 30 mg/kg, ip after 0.5 hrs; assay type: functional; settings: route intraperitoneal
Mus musculus [6] = test: Anticonvulsant activity in CF1 albino mouse assessed as inhibition of maximal electric shock-induced seizure at 300 mg/kg, ip after 0.5 hrs; assay type: functional; settings: route intraperitoneal
Rattus norvegicus [7] = test: Anticonvulsant activity in Sprague-Dawley rat assessed as inhibition of maximal electric shock-induced seizure at 30 mg/kg, po after 4 hrs; assay type: functional
Rattus norvegicus [8] = test: Anticonvulsant activity in Sprague-Dawley rat assessed as inhibition of maximal electric shock-induced seizure at 30 mg/kg, po after 0.5 hrs; assay type: functional
Rattus norvegicus [9] = test: Anticonvulsant activity in Sprague-Dawley rat assessed as inhibition of maximal electric shock-induced seizure at 30 mg/kg, po after 2 hrs; assay type: functional
Mus musculus [10] = test: Anticonvulsant activity in CF1 albino mouse assessed as inhibition of maximal electric shock-induced seizure at 100 mg/kg, ip after 0.5 hrs; assay type: functional; settings: route intraperitoneal
Mus musculus [11] = test: Anticonvulsant activity in CF1 albino mouse assessed as inhibition of maximal electric shock-induced seizure at 30 mg/kg, ip after 4 hrs; assay type: functional; settings: route intraperitoneal
Rattus norvegicus [12] = test: Neurotoxicity in Sprague-Dawley rat at 500 mg/kg, po by positional sense and gait and stance test; assay type: toxicity, organism-based; design: dose 500 mg/kg, route oral; settings: in vivo
Rattus norvegicus [13] = test: Neurotoxicity in Sprague-Dawley rat at 30 mg/kg, po by positional sense and gait and stance test; assay type: toxicity, organism-based; design: dose 30 mg/kg, route oral; settings: in vivo
Rattus norvegicus [14] = test: Neurotoxicity in Sprague-Dawley rat at 250 mg/kg, po by positional sense and gait and stance test; assay type: toxicity, organism-based; design: dose 250 mg/kg, route oral; settings: in vivo
Mus musculus [15] = test: Neurotoxicity in CF1 albino mouse at 100 mg/kg, ip by rotarod test; assay type: toxicity, organism-based; design: dose 100 mg/kg, route intraperitoneal; settings: in vivo
Mus musculus [16] = test: Anticonvulsant activity in CF1 albino mouse assessed as inhibition of minimal clonic seizure at 30 mg/kg, ip after 0.5 hrs; assay type: functional; settings: route intraperitoneal
Mus musculus [17] = test: Anticonvulsant activity in CF1 albino mouse assessed as inhibition of minimal clonic seizure at 100 mg/kg, ip after 2 hrs; assay type: functional; settings: route intraperitoneal
Rattus norvegicus [18] = test: Neurotoxicity in Sprague-Dawley rat at 500 mg/kg, po by positional sense and gait and stance test after 1 hrs; assay type: toxicity, organism-based; design: dose 500 mg/kg, route oral; settings: in vivo
Mus musculus [19] = test: Anticonvulsant activity in CF1 albino mouse assessed as inhibition of minimal clonic seizure at 30 mg/kg, ip after 1 hrs; assay type: functional; settings: route intraperitoneal
Mus musculus [20] = test: Anticonvulsant activity in CF1 albino mouse assessed as inhibition of minimal clonic seizure at 100 mg/kg, ip after 1 hrs; assay type: functional; settings: route intraperitoneal
Mus musculus [21] = test: Anticonvulsant activity in CF1 albino mouse assessed as inhibition of minimal clonic seizure at 30 mg/kg, ip after 0.25 hrs; assay type: functional; settings: route intraperitoneal
Mus musculus [22] = test: Anticonvulsant activity in CF1 albino mouse assessed as inhibition of minimal clonic seizure at 100 mg/kg, ip after 0.5 hrs; assay type: functional; settings: route intraperitoneal
Mus musculus [23] = test: Anticonvulsant activity in CF1 albino mouse assessed as inhibition of minimal clonic seizure at 100 mg/kg, ip after 4 hrs; assay type: functional; settings: route intraperitoneal
Mus musculus [24] = test: Anticonvulsant activity in CF1 albino mouse assessed as inhibition of minimal clonic seizure at 100 mg/kg, ip after 0.25 hrs; assay type: functional; settings: route intraperitoneal
Mus musculus [25] = test: Neurotoxicity in CF1 albino mouse at 300 mg/kg, ip by rotarod test after 4 hrs; assay type: toxicity, organism-based; design: dose 300 mg/kg, route intraperitoneal; settings: in vivo
Rattus norvegicus [26] = test: Anticonvulsant activity against kindle motor-induced seizure in rat assessed as after discharge duration at 100 mg/kg, ip after 135 mins by hippocampal kindling screen test; assay type: functional, Hippocampus; settings: route intraperitoneal
Rattus norvegicus [27] = test: Anticonvulsant activity against kindle motor-induced seizure in rat assessed as after discharge duration at 100 mg/kg, ip after 105 mins by hippocampal kindling screen test; assay type: functional, Hippocampus; settings: route intraperitoneal
Mus musculus [28] = test: Anticonvulsant activity in CF1 albino mouse assessed as inhibition of minimal clonic seizure at 80 mg/kg, ip after 4 hrs; assay type: functional; settings: route intraperitoneal
Rattus norvegicus [29] = test: Anticonvulsant activity against kindle motor-induced seizure in rat assessed as after discharge duration at 100 mg/kg, ip after 195 mins by hippocampal kindling screen test; assay type: functional, Hippocampus; settings: route intraperitoneal
Rattus norvegicus [30] = test: Anticonvulsant activity against kindle motor-induced seizure in rat assessed as after discharge duration at 100 mg/kg, ip after 45 mins by hippocampal kindling screen test; assay type: functional, Hippocampus; settings: route intraperitoneal
Rattus norvegicus [31] = test: Anticonvulsant activity against kindle motor-induced seizure in rat assessed as after discharge duration at 100 mg/kg, ip after 255 mins by hippocampal kindling screen test; assay type: functional, Hippocampus; settings: route intraperitoneal
Rattus norvegicus [32] = test: Anticonvulsant activity against kindle motor-induced seizure in rat assessed as after discharge duration at 100 mg/kg, ip after 165 mins by hippocampal kindling screen test; assay type: functional, Hippocampus; settings: route intraperitoneal
Rattus norvegicus [33] = test: Anticonvulsant activity against kindle motor-induced seizure in rat assessed as after discharge duration at 100 mg/kg, ip after 15 mins by hippocampal kindling screen test; assay type: functional, Hippocampus; settings: route intraperitoneal
Mus musculus [34] = test: Anticonvulsant activity in CF1 albino mouse assessed as inhibition of minimal clonic seizure at 80 mg/kg, ip after 0.25 hrs; assay type: functional; settings: route intraperitoneal
Rattus norvegicus [35] = test: Anticonvulsant activity against kindle motor-induced seizure in rat assessed as after discharge duration at 100 mg/kg, ip after 75 mins by hippocampal kindling screen test; assay type: functional, Hippocampus; settings: route intraperitoneal
Mus musculus [36] = test: Anticonvulsant activity in CF1 albino mouse assessed as inhibition of minimal clonic seizure at 30 mg/kg, ip after 2 hrs; assay type: functional; settings: route intraperitoneal
Mus musculus [37] = test: Anticonvulsant activity in CF1 albino mouse assessed as inhibition of minimal clonic seizure at 80 mg/kg, ip after 1 hrs; assay type: functional; settings: route intraperitoneal
Mus musculus [38] = test: Anticonvulsant activity in CF1 albino mouse assessed as inhibition of minimal clonic seizure at 80 mg/kg, ip after 0.5 hrs; assay type: functional; settings: route intraperitoneal
Rattus norvegicus [39] = test: Anticonvulsant activity against kindle motor-induced seizure in rat assessed as after discharge duration at 100 mg/kg, ip after 225 mins by hippocampal kindling screen test; assay type: functional, Hippocampus; settings: route intraperitoneal
Mus musculus [40] = test: Anticonvulsant activity in CF1 albino mouse assessed as inhibition of minimal clonic seizure at 80 mg/kg, ip after 2 hrs; assay type: functional; settings: route intraperitoneal

| SMILES | inhibition in vivo at 30 mg/kg (Rattus norvegicus [1]) [%] | inhibition in vivo at 300 mg/kg (Mus musculus [2]) [%] | inhibition in vivo at 100 mg/kg (Mus musculus [3]) [%] | inhibition in vivo at 30 mg/kg (Rattus norvegicus [4]) [%] | inhibition in vivo at 30 mg/kg (Mus musculus [5]) [%] | inhibition in vivo at 300 mg/kg (Mus musculus [6]) [%] | inhibition in vivo at 30 mg/kg (Rattus norvegicus [7]) [%] | inhibition in vivo at 30 mg/kg (Rattus norvegicus [8]) [%] | inhibition in vivo at 30 mg/kg (Rattus norvegicus [9]) [%] | inhibition in vivo at 100 mg/kg (Mus musculus [10]) [%] | inhibition in vivo at 30 mg/kg (Mus musculus [11]) [%] | Activity (Mus musculus [15]) | inhibition in vivo at 30 mg/kg (Mus musculus [16]) [%] | inhibition in vivo at 100 mg/kg (Mus musculus [17]) [%] | inhibition in vivo at 30 mg/kg (Mus musculus [19]) [%] | inhibition in vivo at 100 mg/kg (Mus musculus [20]) [%] | inhibition in vivo at 30 mg/kg (Mus musculus [21]) [%] | inhibition in vivo at 100 mg/kg (Mus musculus [22]) [%] | inhibition in vivo at 100 mg/kg (Mus musculus [23]) [%] | inhibition in vivo at 100 mg/kg (Mus musculus [24]) [%] | also measured |
| --- | --- | --- | --- | --- | --- | --- | --- | --- | --- | --- | --- | --- | --- | --- | --- | --- | --- | --- | --- | --- | --- |
| Nc1ccc(NC(=O)c2ccc(N)cc2)cc1 | 50 | 100 | 0 | 50 | 0 | 100 | 50 | 75 | 25 | 66 | 0 |  |  |  |  |  |  |  |  |  | Activity (Rattus norvegicus [12]): Non-toxic |
| Nc1ccc(Oc2ccc(N)cc2)cc1 | 75 | 100 | 100 | 100 | 0 | 100 | 100 | 100 | 75 | 100 | 0 |  |  |  |  |  |  |  |  |  | Activity (Rattus norvegicus [13]): Non-toxic |
| Nc1ccc(Nc2cccc(N)c2)cc1 | 75 | 100 | 100 | 0 | 0 | 100 | 50 | 50 | 50 | 100 | 0 | Non-toxic |  |  |  |  |  |  |  |  | Activity (Rattus norvegicus [14]): Non-toxic |
| Nc1ccc(C(=O)c2ccc(N)cc2)cc1 | 75 | 100 | 100 | 50 | 0 | 100 | 75 | 100 | 100 | 100 | 0 |  | 0 | 0 | 0 | 100 | 0 | 100 | 0 | 100 | Activity (Rattus norvegicus [18]): Non-toxic |
| Nc1ccc(Cc2ccc(N)cc2)cc1 [4,4'-METHYLENEDIANILINE] | 100 | 100 | 0 | 100 | 0 | 100 | 50 | 75 | 100 | 100 | 0 | Non-toxic |  |  |  |  |  |  |  |  |  |
| Nc1ccc(Sc2ccc(N)cc2)cc1 [4,4'-THIODIANILINE] | 100 | 100 | 100 | 100 | 0 | 100 | 100 | 100 | 100 | 66 | 0 |  | 25 | 100 | 25 | 100 | 0 | 100 | 0 | 100 | Activity (Mus musculus [25]): Non-toxic; Activity (Rattus norvegicus [26]): 34.71 s; Activity (Rattus norvegicus [27]): 33.29 s; inhibition in vivo at 80 mg/kg (Mus musculus [28]): 0%; Activity (Rattus norvegicus [29]): 55.29 s; Activity (Rattus norvegicus [30]): 25.29 s; Activity (Rattus norvegicus [31]): 65.43 s; Activity (Rattus norvegicus [32]): 57.43 s; Activity (Rattus norvegicus [33]): 19.14 s; inhibition in vivo at 80 mg/kg (Mus musculus [34]): 100%; Activity (Rattus norvegicus [35]): 24.86 s; inhibition in vivo at 30 mg/kg (Mus musculus [36]): 25%; inhibition in vivo at 80 mg/kg (Mus musculus [37]): 100%; inhibition in vivo at 80 mg/kg (Mus musculus [38]): 100%; Activity (Rattus norvegicus [39]): 71.29 s; inhibition in vivo at 80 mg/kg (Mus musculus [40]): 75% |
